# Data published in PMC8596843, “Platinum Cyclooctadiene Complexes with Activity against Gram‐positive Bacteria” (Chemmedchem, 2021).
# Read-outs that look alike come from different tables or passages of the source.
# Tests used:
# [1] = system: Staphylococcus aureus ATCC 43300 (MRSA); test: microbe, parasite or virus in culture; format: cell-based; details: for MIC Sa: CO‐ADD screening
# Protocol: (§1) All compounds submitted to CO‐ADD are initially screened against five bacterial strains (Staphylococcus aureus (MRSA), E. coli, Klebsiella pneumoniae, Pseudomonas aeruginosa, Acinetobacter baumannii) and two fungal strains (Candida albicans, Cryptococcus neoformans) at a single concentration (32 μg/mL or 20 μM) performed as a high‐throughput primary screening.[[11], [17a]] Any compounds that show significant growth inhibition against any of the tested strains at this step are then evaluated in a dose‐response assay against these same strains. […]
# (§2) Smiles: C1C=CCCC(=CC1)C1=CCCC=CCC1.C[Pt]C.C[Pt]C […]
# (§3) ATCC strains were sourced from the American Type Culture Collection and NRS strains from NARSA (Network on Antimicrobial Resistance in Staphylococcus aureus) via BEI Resources (www.beiresources.org), with clinical MSSA and MRSA isolates from Prof Graeme Nimmo, Queensland […]
# (§4) Health Central Pathology. […]
# (§5) Antibacterial minimum inhibitory concentration (MIC) assay
# (§6) Compound Assay Plate Preparation: Compounds were dissolved in DMSO at 10mM (CO-ADD screening) or 4 mM (follow up screening) and were plated in a 2-fold dose response from 20 to 0.156 µM or 200 to 0.006 µM respectively, with a maximum of 0.5% or 1% DMSO, final in the assay […]
# (§7) plated in a 2-fold dose response from 200 to 0.006 µM, with a maximum of 1 % DMSO, final in the assay concentration. (in-house screening)
# (§8) For all the bacterial assays, each strain was cultured in Cation-adjusted Mueller Hinton broth (CAMHB; Bacto Laboratories 212322) at 37 °C overnight. A sample of each culture was then diluted 40-fold in fresh CAMHB and incubated at 37 °C for 1.5–3 h. The resultant mid-log phase cultures were diluted with CAMHB (CFU mL−1 measured by OD600), then added to each well of the compound-containing plates (384-well non-binding surface (NBS) plates; Corning CLS3640), giving a cell density of 5 × 10^5 CFU mL−1 and a total volume of 50 μL. Plates were covered and incubated at 37 °C for 18 h without shaking. Inhibition of bacterial growth was determined measuring absorbance at 600 nm (OD600), using media only as negative control and bacteria without inhibitors as positive control. MIC values were determined as the lowest concentration at which the growth was inhibited at ≥80%. Colistin sulfate (Sigma C4461) and vancomycin HCl (Sigma 861987) were used as internal controls on each plate for Gram-negative and Gram-positive bacteria, respectively. […]
# [2] = system: Acinetobacter baumannii ATCC 19606; test: Antibacterial MIC assay; format: cell-based; details: CO‐ADD screening
# Protocol: as §1, §2, §3, §4, §5, §6, §7, §8
# [3] = system: Escherichia coli ATCC 25922; test: Antibacterial MIC assay; format: cell-based; details: CO‐ADD screening
# Protocol: as §1, §2, §3, §4, §5, §6, §7, §8
# [4] = system: Pseudomonas aeruginosa ATCC 27853; test: Antibacterial MIC assay; format: cell-based; details: CO‐ADD screening
# Protocol: as §1, §2, §3, §4, §5, §6, §7, §8
# [5] = system: Klebsiella pneumoniae ATCC 700603 (ESBL SHV‐18)
# Protocol: as §1, §2, §3, §4, §5, §6, §7, §8
# [6] = system: Candida albicans ATCC 90028; test: Antifungal MIC (CO-ADD screening); format: cell-based
# Protocol: (§9) InChIKey: PHIWIZAHOBWKFJ-HPCBIOCFSA-N
# (§10) Health Central Pathology. Candida albicans (ATCC 90028, NCCLS 11), Cryptococcus neoformans
# as §5
# (§11) concentration. (in-house screening)
# (§12) Bacto Laboratories 212322) at 37 °C overnight.
# [7] = system: Cryptococcus neoformans H99 ATCC 208821; test: Antifungal MIC (CO-ADD screening); format: cell-based
# Protocol: as §9, §10, §5, §11, §12
# [8] = system: HEK-293 ATCC CRL-1573 human embryonic kidney cells; format: cell-based
# Protocol: As part of the CO‐ADD screening, all compounds that show any activity against a microbial strain are evaluated for their cytotoxicity against human embryonic kidney cells (HEK‐293) and for haemolysis against human red blood cells. None of the compounds tested for cytotoxicity (Pt1‐9 and Pd1) caused any significant cell death up to concentrations of 100 μM. […] We have also observed higher IC50 values for the methylated complexes Pt3 and Pt4 against HeLa cells in previous work.[16] […]
# (§13) inhibitors as positive control.
# (§14) Tamoxifen (Sigma T5648) was used
# (§15) as internal control on each plate.
# in a Neubauer haemocytometer. […]
# human red blood cells = test: Haemolysis assay; format: cell-based; details: for Haemolysis HC10: concentration inducing 10 % haemolysis; for Haemolysis HC50: concentration inducing 50 % haemolysis
# Protocol: As part of the CO‐ADD screening, all compounds that show any activity against a microbial strain are evaluated for their cytotoxicity against human embryonic kidney cells (HEK‐293) and for haemolysis against human red blood cells. None of the compounds tested for cytotoxicity (Pt1‐9 and Pd1) caused any significant cell death up to concentrations of 100 μM. […] We have also observed higher IC50 values for the methylated complexes Pt3 and Pt4 against HeLa cells in previous work.[16]
# (§16) The resultant mid-log phase cultures were diluted
# (§17) Gram-negative and Gram-positive bacteria, respectively.
# (§18) final concentration range of 0.8 – 100 µM.
# as §13, §14, §15
# in a Neubauer haemocytometer.
# incubated for 1 h at 37 °C, without shaking.
# HC10 and HC50 (concentration at which 10%
# for top, bottom and slope using Prism 8. […]
# [9] = system: Staphylococcus aureus ATCC 25923, MSSA; test: Antibacterial MIC assay, Gram-positive panel; format: cell-based; details: Table S1 panel; n=4
# From the text: (§19) Bis(dimethyl-η4)-((1Z,1'E,5Z,5'E)-(1,1'-bi(cyclooctadiene))diplatinum(II) (Pt14) Smiles: C1C=CCCC(=CC1)C1=CCCC=CCC1.C[Pt]C.C[Pt]C
# as §9
# (§20) Link to selected data that was repeated to approve the identity of the compounds: https://dx.doi.org/10.14272/PHIWIZAHOBWKFJ-HPCBIOCFSA-N.1
# as §3, §4, §5, §6, §7, §8
# [10] = system: Staphylococcus aureus VRS 1, VRSA (VanA); test: Antibacterial MIC assay, Gram-positive panel; format: cell-based; details: Table S1 panel; n=4
# From the text: as §19, §9, §20, §3, §4, §5, §6, §7, §8
# [11] = system: Enterococcus faecalis ATCC 29212, control strain; test: Antibacterial MIC assay, Gram-positive panel; format: cell-based; details: Table S1 panel; n=4
# Protocol: as §2, §3, §4, §5, §6, §7, §8
# [12] = system: Enterococcus faecalis Clinical Isolate, VRE (VanB); test: Antibacterial MIC assay, Gram-positive panel; format: cell-based; details: Table S1 panel; n=4
# Protocol: as §2, §3, §4, §5, §6, §7, §8
# [13] = system: Enterococcus faecium ATCC 35667, type strain; test: Antibacterial MIC assay, Gram-positive panel; format: cell-based; details: Table S1 panel; n=4
# Protocol: as §2, §3, §4, §5, §6, §7, §8
# [14] = system: Enterococcus faecium ATCC 51559, MDR, VRE (VanA); test: Antibacterial MIC assay, Gram-positive panel; format: cell-based; details: Table S1 panel; n=2
# Protocol: as §2, §3, §4, §5, §6, §7, §8
# [15] = system: Enterococcus faecium Clinical Isolate, VRE (VanA); test: Antibacterial MIC assay, Gram-positive panel; format: cell-based; details: Table S1 panel; n=4
# Protocol: as §2, §3, §4, §5, §6, §7, §8
# [16] = system: Staphylococcus aureus NRS 17, GISA; test: Antibacterial MIC assay, Gram-positive panel; format: cell-based; details: Table S1 panel; n=2
# Protocol: as §2, §3, §4, §5, §6, §7, §8
# [17] = system: Staphylococcus epidermidis ATCC 14990, type strain; test: Antibacterial MIC assay, Gram-positive panel; format: cell-based; details: Table S1 panel; n=4
# Protocol: as §2, §3, §4, §5, §6, §7, §8
# [18] = system: Staphylococcus epidermidis NRS 60, VISE; test: Antibacterial MIC assay, Gram-positive panel; format: cell-based; details: Table S1 panel; n=4
# Protocol: as §2, §3, §4, §5, §6, §7, §8
# [19] = system: E. coli lpxC (non‐efficient lipid A production mutant); test: MIC against E. coli membrane mutants; format: cell-based, Escherichia coli
# Protocol: as §5, §11, §12, §16, §17, §18
# (§21) inhibitors as positive control. […]
# [20] = system: E. coli tolC (efflux pump deficient); test: MIC against E. coli membrane mutants; format: cell-based, Escherichia coli
# Protocol: as §5, §11, §12, §16, §17, §18, §21
# [21] = system: B. subtilis ATCC 6051 type strain; test: MIC in the presence of human serum (serum reversal); format: cell-based, Bacillus subtilis; details: 10% serum
# From the text: (§22) To obtain some initial insight into the apparent disparity between in vitro and in vivo results, we repeated the MIC experiments against four selected Gram‐positive strains in the presence of 10 % or 50 % human serum (Table S3). Pt1 and Pt2 maintained some antibacterial activity against B. subtilis in the presence of 10 % serum, but a complete loss of activity was observed against MRSA and GISA (50 % serum), and VRE (10 % serum). […] Systemic administration is therefore unlikely to be a suitable administration route for this class of compounds unless an alternative formulation that can prevent serum binding (e. g. by lipid or nanoparticle encapsulation) can be found. […] Further in vivo studies should therefore focus on more suitable disease models. […]
# as §5, §11, §12, §16, §17, §18, §21
# [22] = system: S. aureus ATCC 43300 MRSA; test: as above; format: cell-based, Staphylococcus aureus; details: 50% serum
# From the text: as §22, §5, §11, §12, §16, §17, §18, §21
# S. aureus NRS 17 GISA = test: as above; format: cell-based, Staphylococcus aureus; details: 50% serum
# From the text: as §22, §5, §11, §12, §16, §17, §18, §21
# [23] = system: E. faecium ATCC 51559 MDR, VRE; test: as above; format: cell-based, Enterococcus faecium; details: 10% serum
# From the text: as §22, §5, §11, §12, §16, §17, §18, §21
# HT‐29 colon carcinoma = system: HT‐29 colon carcinoma; set-up: method as in earlier work; details: ref 14a, read-out: IC50 cytotoxicity; cited from earlier work
# [24] = system: MCF‐7 breast cancer cells; set-up: method as in earlier work; details: ref 14a, read-out: IC50 cytotoxicity; cited from earlier work
Compound,MIC Sa [1] [µM],MIC Ab [2] [µM],MIC Ec [3] [µM],MIC Pa [4] [µM],MIC Kp [5] [µM],MIC Ca [6] [µM],MIC Cn [7] [µM],CC50 [8] [µM],Haemolysis HC10 (human red blood cells) [µM],Haemolysis HC50 (human red blood cells) [µM],MIC [9] [µM],MIC [10] [µM],MIC [12] [µM],MIC [13] [µM],MIC [17] [µM],MIC [18] [µM],MIC in the presence of human serum [21] [µM],MIC in the presence of human serum [22] [µM],MIC in the presence of human serum (S. aureus NRS 17 GISA) [µM],MIC in the presence of human serum [23] [µM],further results
C1=CCCC=CCC1.COc1cc[c]([Pt][CH3])cc1 [Pt5],>20,>20,>20,>20,>20,10,20,> 100,88.43,>100,100,200,> 200,> 200,50,50,> 200,> 200,> 200,> 200,MIC [11]: > 200 µM; MIC [14]: 200 µM; MIC [15]: 200 µM; MIC [16]: 100 µM; MIC E. coli lpxC ([19]; Table S2): > 200 µM; MIC E. coli TolC ([20]; Table S2): > 200 µM
C1=CCCC=CCC1.[CH3][Pt][CH3] [Pt3],–,–,–,–,–,–,–,> 100,>100,>100,50,> 200,200,200,6.25,25,> 200,> 200,> 200,> 200,MIC E. coli lpxC ([19]; Table S2): 200 µM; MIC E. coli TolC ([20]; Table S2): > 200 µM
C1=CCCC=CCC1.[CH3][Pt][Cl] [Pt4],>20,>20,>20,>20,>20,5 to 10,10 to 20,> 100,10.23,52.11,100,> 200,> 200,> 200,50,100,> 200,> 200,> 200,> 200,"MIC ([1]; Table S1 panel, n=2): 6.25 µM; MIC [11]: > 200 µM; MIC [14]: 25 µM; MIC [15]: 200 µM; IC50 (HT‐29 colon carcinoma): 8.3 ± 3 µM; IC50 [24]: 11.2 ± 1.4 µM"
Colistin [reference compound],–,–,–,–,–,–,–,–,–,–,–,–,–,–,–,–,–,–,–,–,"MIC Ab ([2]; control antibiotic): 0.25 µg/mL; MIC Ec ([3]; control antibiotic): 0.125 µg/mL; MIC Pa ([4]; control antibiotic): 0.25 µg/mL; MIC Kp ([5]; CO‐ADD screening, control antibiotic): 0.25 µg/mL; MIC E. coli lpxC ([19]; Table S2, colistin control): 0.03 µg/mL; MIC E. coli TolC ([20]; Table S2, colistin control): 0.03 µg/mL"
